Data reported in the supplement of paper PMC10307832.

Tests used:
Assay in all cases: relative viability (nuclei count vs DMSO), 5 days (fraction); higher = more cells survive
[1] = compound: CC1=CC(=CC=C1)NC2=NC(=CS2)C3=CC=NC=C3 + C[C@@H](Oc1cc(-c2cnn(C3CCNCC3)c2)cnc1N)c1c(Cl)ccc(F)c1Cl [Crizotinib] (partner 1 µM)
In short: (§1)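 Five library-drug doses in √10 steps were combined with a fixed anchor-drug dose, or a single drug was given alone, by pin tool to lung cancer cell lines in 1536-well plates the day after seeding. Nuclei were stained and counted after 5 days. Relative viability is the nuclei count in treated wells over that in vehicle wells, taken as the median of duplicate plates.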

[2] = compound: CC1=CC(=CC=C1)NC2=NC(=CS2)C3=CC=NC=C3 + C[C@]1(O)C[C@@H](c2nc(-c3ccc4ccc(-c5ccccc5)nc4c3)c3c(N)nccn32)C1 [Linsitinib] (partner 1 µM)
In short: as §1

Masitinib + Decitabine = compound: Cc1ccc(NC(=O)c2ccc(CN3CCN(C)CC3)cc2)cc1Nc1nc(-c2cccnc2)cs1 [Masitinib] + Nc1ncn([C@H]2C[C@H](O)[C@@H](CO)O2)c(=O)n1 [Decitabine] (partner 2 µM)
In short: as §1

Masitinib + Palbociclib = compound: Cc1ccc(NC(=O)c2ccc(CN3CCN(C)CC3)cc2)cc1Nc1nc(-c2cccnc2)cs1 [Masitinib] + CC(=O)c1c(C)c2cnc(Nc3ccc(N4CCNCC4)cn3)nc2n(C2CCCC2)c1=O [Palbociclib] (partner 0.5 µM)
In short: as §1

Cell Line	relative viability ([1]; first compound 0.08 µM)	relative viability ([1]; first compound 0.253 µM)	relative viability ([1]; first compound 0.8 µM)	relative viability ([1]; first compound 2.53 µM)	relative viability ([1]; first compound 8 µM)	relative viability ([2]; first compound 0.08 µM)	relative viability ([2]; first compound 0.253 µM)	relative viability ([2]; first compound 0.8 µM)	relative viability ([2]; first compound 2.53 µM)	relative viability ([2]; first compound 8 µM)	relative viability (Masitinib + Decitabine; first compound 0.01 µM)	relative viability (Masitinib + Decitabine; first compound 0.03162 µM)	relative viability (Masitinib + Decitabine; first compound 0.1 µM)	relative viability (Masitinib + Decitabine; first compound 0.3162 µM)	relative viability (Masitinib + Decitabine; first compound 1 µM)	relative viability (Masitinib + Palbociclib; first compound 0.01 µM)	relative viability (Masitinib + Palbociclib; first compound 0.03162 µM)	relative viability (Masitinib + Palbociclib; first compound 0.1 µM)	relative viability (Masitinib + Palbociclib; first compound 0.3162 µM)	relative viability (Masitinib + Palbociclib; first compound 1 µM)
NCI-H1299	0.89	0.891	0.924	0.931	0.804	0.93	0.985	0.936	0.928	0.928										
NCI-H1395						0.999	0.949	1.01	0.932	0.903	0.734	0.705	0.694	0.703	0.62	0.593	0.653	0.643	0.562	0.595
NCI-H1563	0.958	0.916	0.887	0.909	0.86	1.11	1.12	1.19	1.29	1.18										
NCI-H1648											0.614	0.451	0.568		0.453	0.297	0.313	0.289		0.228
NCI-H1650	0.946	0.728	0.83	0.919	1.03						0.438	0.391	0.411	0.493	0.345	0.242	0.321	0.254	0.298	0.376
NCI-H1703	0.73	1.01	0.683	0.878	0.799	0.733	0.632	0.64	0.732	0.555										
NCI-H1793							0.763	0.92	0.753	0.825	0.486	0.509	0.502	0.53	0.591	0.282	0.279	0.348	0.303	0.259
NCI-H2170	1.11	1.13	1.09	1.09	1.05						0.467	0.473	0.509	0.488	0.449	0.383	0.331	0.438	0.403	0.417
NCI-H2228	0.318	0.334	0.4	0.457	0.352	0.569	0.629	0.408	0.586	0.705						0.518	0.723	1.12	0.844	0.486
NCI-H2342											0.724	0.648	0.683	0.79	0.833	0.532	0.524	0.566	0.507	0.529
SW 900											0.349	0.438	0.452	0.519	0.442	0.462	0.458	0.575	0.502	0.513
